Test results published in the Kinase Knowledgebase extract (Sharma et al. 2016).

Biological target: MAPK14 (human) (UniProt Q16539)
Assay: Inhibition of LPS Stimulated TNF Production by U937 Cells
Conditions: for inhibition: concentration not given here

MAPK14 (human), sequence (Q16539 whole entry, looked up): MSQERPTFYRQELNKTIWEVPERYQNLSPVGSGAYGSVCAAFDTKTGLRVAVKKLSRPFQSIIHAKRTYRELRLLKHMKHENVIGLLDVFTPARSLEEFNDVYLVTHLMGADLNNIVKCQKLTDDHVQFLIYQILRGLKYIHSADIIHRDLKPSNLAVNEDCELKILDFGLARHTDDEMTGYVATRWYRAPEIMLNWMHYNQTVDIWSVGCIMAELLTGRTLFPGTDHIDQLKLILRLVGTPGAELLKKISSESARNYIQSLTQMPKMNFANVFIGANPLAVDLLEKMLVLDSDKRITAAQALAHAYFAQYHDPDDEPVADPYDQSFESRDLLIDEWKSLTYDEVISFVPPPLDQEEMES

| SMILES | inhibition [%] | IC50 [µM] |
| --- | --- | --- |
| O=C(c1ccccc1F)N1CCC(c2[nH]nc(-c3ccc(F)cc3)c2-c2ccncc2)CC1 | – | 0.41 |
| Cc1ccc(C(=O)N[C@H](Cc2ccccc2)c2[nH]nc(-c3ccc(F)cc3)c2-c2ccncc2)cc1 | – | > 1 |
| O=C(c1cccs1)N1CCC(c2[nH]nc(-c3ccc(F)cc3)c2-c2ccncc2)CC1 | – | 0.37 |
| C[C@@H](NC(=O)c1ccccc1Br)c1[nH]nc(-c2ccc(F)cc2)c1-c1ccncc1 | 87 | – |
| CNC(=O)N[C@@H](Cc1ccccc1)c1[nH]nc(-c2ccc(F)cc2)c1-c1ccncc1 | 11 | – |
| O=S(=O)(c1cccc(Cl)c1Cl)N1CCC(c2[nH]nc(-c3ccc(F)cc3)c2-c2ccncc2)CC1 | 22 | – |
| O=C(NCCCc1[nH]nc(-c2ccc(F)cc2)c1-c1ccncc1)NCc1cccnc1 | 11 | – |
| Cc1ccc(S(=O)(=O)N[C@@H](Cc2ccccc2)C(=O)N[C@H](C)c2[nH]nc(-c3ccc(F)cc3)c2-c2ccncc2)cc1 | 10 | – |
| O=S(=O)(NCc1[nH]nc(-c2ccc(F)cc2)c1-c1ccncc1)c1cccc2nonc12 | 54 | – |
| O=C(NCc1[nH]nc(-c2ccc(F)cc2)c1-c1ccncc1)c1cccnc1 | 16 | – |
| C[C@@H](NS(=O)(=O)/C=C/c1ccccc1)c1[nH]nc(-c2ccc(F)cc2)c1-c1ccncc1 | 36 | – |
| C[C@@H](NS(=O)(=O)c1ccccc1Br)c1[nH]nc(-c2ccc(F)cc2)c1-c1ccncc1 | 80 | – |
| O=C(NCc1[nH]nc(-c2ccc(F)cc2)c1-c1ccncc1)Nc1ccccc1 | 31 | – |
| C[C@@H](NS(=O)(=O)c1ccc(-c2ccccc2)cc1)c1[nH]nc(-c2ccc(F)cc2)c1-c1ccncc1 | 95 | – |
| C[C@H](NS(=O)(=O)c1ccc(Br)cc1)c1[nH]nc(-c2ccc(F)cc2)c1-c1ccncc1 | 87 | – |
| C[C@H](NS(=O)(=O)Cc1ccccc1[N+](=O)[O-])c1[nH]nc(-c2ccc(F)cc2)c1-c1ccncc1 | 88 | – |
| OCCn1cc(-c2ccnc(/C=C/c3ccc(F)cc3)c2)c(-c2ccc(F)cc2)n1 | – | 0.347 |
| COc1ccc(S(=O)(=O)NCc2[nH]nc(-c3ccc(F)cc3)c2-c2ccncc2)cc1 | – | 1.78 |
| Cc1onc(-c2c(F)cccc2Cl)c1C(=O)NCc1[nH]nc(-c2ccc(F)cc2)c1-c1ccncc1 | – | > 1 |
| C[C@@H](NC(=O)c1ccccc1Cl)c1[nH]nc(-c2ccc(F)cc2)c1-c1ccncc1 | 87 | – |
| CCOC(=O)c1ccc(NC(=O)NCc2[nH]nc(-c3ccc(F)cc3)c2-c2ccncc2)cc1 | 13 | – |
| CN(C(=O)N[C@H](Cc1ccccc1)c1[nH]nc(-c2ccc(F)cc2)c1-c1ccncc1)c1ccccc1 | – | > 1 |
| O=C(c1ccc(I)cc1)N1CCC(c2[nH]nc(-c3ccc(F)cc3)c2-c2ccncc2)CC1 | – | 0.27 |
| Cc1cccc(Cl)c1S(=O)(=O)N[C@@H](C)c1[nH]nc(-c2ccc(F)cc2)c1-c1ccncc1 | 89 | – |

| SMILES | inhibition [%] | IC50 [µM] |
| --- | --- | --- |
| COc1ccccc1C(=O)N[C@H](Cc1ccccc1)c1[nH]nc(-c2ccc(F)cc2)c1-c1ccncc1 | 2 | > 1 |
| O=C(c1ccc(Br)cc1)N1CCC(c2[nH]nc(-c3ccc(F)cc3)c2-c2ccncc2)CC1 | – | 1.38 |
| O=S(=O)(NCc1[nH]nc(-c2ccc(F)cc2)c1-c1ccncc1)c1ccccc1Cl | 70 | – |
| COc1ccccc1C(=O)NCc1[nH]nc(-c2ccc(F)cc2)c1-c1ccncc1 | – | 4.47 |
| O=C(N[C@H](Cc1ccccc1)c1[nH]nc(-c2ccc(F)cc2)c1-c1ccncc1)c1ccccn1 | 8 | > 1 |
| O=S(=O)(NCCc1[nH]nc(-c2ccc(F)cc2)c1-c1ccncc1)c1ccc(Cl)cc1Cl | 31 | – |
| COc1ccc(S(=O)(=O)N[C@@H](C)c2[nH]nc(-c3ccc(F)cc3)c2-c2ccncc2)cc1OC | 66 | – |
| Fc1ccc(-c2n[nH]cc2-c2ccnc3ccccc23)cc1 | – | 1.13 |
| C[C@H](NC(=O)c1ccccc1Br)c1[nH]nc(-c2ccc(F)cc2)c1-c1ccncc1 | 39 | – |
| C[C@@H](NS(=O)(=O)c1ccc(C#N)cc1)c1[nH]nc(-c2ccc(F)cc2)c1-c1ccncc1 | 90 | – |
| Cc1ccc(S(=O)(=O)N[C@@H](Cc2ccccc2)C(=O)N[C@@H](C)c2[nH]nc(-c3ccc(F)cc3)c2-c2ccncc2)cc1 | 31 | – |
| CCCCOc1ccc(S(=O)(=O)N[C@H](C)c2[nH]nc(-c3ccc(F)cc3)c2-c2ccncc2)cc1 | 67 | – |
| C[C@@H](NS(=O)(=O)c1cccc2nonc12)c1[nH]nc(-c2ccc(F)cc2)c1-c1ccncc1 | 96 | – |
| O=S(=O)(NCc1[nH]nc(-c2ccc(F)cc2)c1-c1ccncc1)c1cccc2ccccc12 | – | > 1 |
| O=C(NCc1[nH]nc(-c2ccc(F)cc2)c1-c1ccncc1)c1ccc(Cl)cc1Cl | 20 | – |
| CCc1ccc(S(=O)(=O)N[C@H](C)c2[nH]nc(-c3ccc(F)cc3)c2-c2ccncc2)cc1 | 92 | – |
| O=C(NCCc1[nH]nc(-c2ccc(F)cc2)c1-c1ccncc1)c1cccc(Cl)c1Cl | 11 | – |
| CCN(CC)CCn1cc(-c2ccnc(NCc3ccc(F)cc3)c2)c(-c2ccc(F)cc2)n1 | – | 0.7 |
| CN(C)CCn1cc(-c2ccnc(N(C)C)c2)c(-c2ccc(F)cc2)n1 | – | > 10 |
| O=S(=O)(c1cccc(Br)c1)N1CCC(c2[nH]nc(-c3ccc(F)cc3)c2-c2ccncc2)CC1 | – | > 1 |
| O=C(NCc1[nH]nc(-c2ccc(F)cc2)c1-c1ccncc1)c1cccc(Br)c1 | 24 | – |
| CC(=O)Nc1ccc(S(=O)(=O)NCCc2[nH]nc(-c3ccc(F)cc3)c2-c2ccncc2)cc1 | 24 | – |
| O=C(Nc1ccccc1F)N1CCC(c2[nH]nc(-c3ccc(F)cc3)c2-c2ccncc2)CC1 | – | 0.092 |
| COc1ccc(C)cc1S(=O)(=O)N[C@H](C)c1[nH]nc(-c2ccc(F)cc2)c1-c1ccncc1 | 92 | – |

More lines, now with the values ahead:

| inhibition [%] | IC50 [µM] | SMILES |
| --- | --- | --- |
| 11 | – | CN(C)CCNC(=O)NCCCc1[nH]nc(-c2ccc(F)cc2)c1-c1ccncc1 |
| 42 | – | C=CCNC(=O)N[C@@H](C)c1[nH]nc(-c2ccc(F)cc2)c1-c1ccncc1 |
| – | 38 | CCCNC(=O)N[C@@H](C)c1[nH]nc(-c2ccc(F)cc2)c1-c1ccncc1 |
| 13 | – | O=C(NCc1[nH]nc(-c2ccc(F)cc2)c1-c1ccncc1)C1CCCC1 |
| – | 1.09 | Fc1ccc(-c2[nH]nc(Nc3ccccc3)c2-c2ccncc2)cc1 |
| 36 | – | Cc1c(-c2ccncc2)c(-c2ccc(F)cc2)nn1CC(=O)NCCc1cccs1 |
| – | 10 | CC(C)NC(=O)NCc1[nH]nc(-c2ccc(F)cc2)c1-c1ccncc1 |
| 27 | – | C[C@@H](NC(=O)c1ccno1)c1[nH]nc(-c2ccc(F)cc2)c1-c1ccncc1 |
| – | 2.36 | Cc1cccc(C)c1NC(=O)NCc1[nH]nc(-c2ccc(F)cc2)c1-c1ccncc1 |
| 97 | – | C[C@@H](NS(=O)(=O)c1cccc(C(F)(F)F)c1)c1[nH]nc(-c2ccc(F)cc2)c1-c1ccncc1 |
| – | 3.33 | O=C(NCc1[nH]nc(-c2ccc(F)cc2)c1-c1ccncc1)C1CC1 |
| 36 | – | C[C@H](NC(=O)c1cc(F)cc(C(F)(F)F)c1)c1[nH]nc(-c2ccc(F)cc2)c1-c1ccncc1 |
| 29 | – | O=C(NCCc1[nH]nc(-c2ccc(F)cc2)c1-c1ccncc1)c1ccc(Cl)cc1 |
| 1 | – | Cc1noc(C)c1S(=O)(=O)NCc1[nH]nc(-c2ccc(F)cc2)c1-c1ccncc1 |
| – | 0.274 | Cc1ccc(-c2n[nH]c(C)c2-c2ccncc2)cc1 |
| 79 | – | CNC(=O)N[C@@H](C)c1[nH]nc(-c2ccc(F)cc2)c1-c1ccncc1 |
| 48 | – | C=CCNC(=O)N[C@H](C)c1[nH]nc(-c2ccc(F)cc2)c1-c1ccncc1 |
| 67 | – | C[C@H](NC(=O)c1c(F)ccc(F)c1F)c1[nH]nc(-c2ccc(F)cc2)c1-c1ccncc1 |
| 11 | – | O=S(=O)(NCCCc1[nH]nc(-c2ccc(F)cc2)c1-c1ccncc1)c1cccc(C(F)(F)F)c1 |
| 55 | – | C[C@H](NS(=O)(=O)c1ccccc1C(F)(F)F)c1[nH]nc(-c2ccc(F)cc2)c1-c1ccncc1 |
| – | 1.69 | Cc1n[nH]c(-c2ccc3c(c2)OCO3)c1-c1ccncc1 |
| 52 | – | C[C@@H](NC(=O)c1cccc(F)c1)c1[nH]nc(-c2ccc(F)cc2)c1-c1ccncc1 |

| inhibition [%] | IC50 [µM] | SMILES |
| --- | --- | --- |
| 25 | – | C[C@@H](NC(=O)c1ccc(I)cc1)c1[nH]nc(-c2ccc(F)cc2)c1-c1ccncc1 |
| 65 | – | O=C(NCc1[nH]nc(-c2ccc(F)cc2)c1-c1ccncc1)c1c(F)cccc1C(F)(F)F |
| 50 | – | CCNC(=O)N[C@@H](C)c1[nH]nc(-c2ccc(F)cc2)c1-c1ccncc1 |
| – | 0.17 | Clc1ccc(-c2n[nH]cc2-c2ccncc2)cc1Cl |
| 83 | – | C[C@@H](NC(=O)c1c(F)cccc1F)c1[nH]nc(-c2ccc(F)cc2)c1-c1ccncc1 |
| – | 2.76 | O=C(NCc1[nH]nc(-c2ccc(F)cc2)c1-c1ccncc1)c1ccc(F)cc1 |
| 37 | – | C[C@H](NC(=O)N1CCOCC1)c1[nH]nc(-c2ccc(F)cc2)c1-c1ccncc1 |
| 31 | – | CCCNC(=O)Cn1nc(-c2ccc(F)cc2)c(-c2ccncc2)c1C |
| 47 | – | C[C@H](NC(=O)[C@@H]1CCCN1)c1[nH]nc(-c2ccc(F)cc2)c1-c1ccncc1 |
| – | 0.3 | C#CCNc1n[nH]c(-c2ccc(F)cc2)c1-c1ccncc1 |
| 53 | – | CC(C)OC(=O)N[C@@H](C)c1[nH]nc(-c2ccc(F)cc2)c1-c1ccncc1 |
| 28 | – | Cc1noc(C)c1C(=O)NCc1[nH]nc(-c2ccc(F)cc2)c1-c1ccncc1 |
| 22 | – | O=C(NCc1[nH]nc(-c2ccc(F)cc2)c1-c1ccncc1)[C@@H]1CCCN1 |
| 24 | – | Cc1ccc(F)cc1S(=O)(=O)NCc1[nH]nc(-c2ccc(F)cc2)c1-c1ccncc1 |
| – | 0.73 | CCNC(=O)N1CCC(c2[nH]nc(-c3ccc(F)cc3)c2-c2ccncc2)CC1 |
| 13 | – | CCS(=O)(=O)N[C@@H](CCC(=O)NC)c1[nH]nc(-c2ccc(F)cc2)c1-c1ccncc1 |
| 19 | – | O=C(NCc1[nH]nc(-c2ccc(F)cc2)c1-c1ccncc1)c1ccc(Cl)cc1 |
| – | 0.522 | Cc1n[nH]c(-c2ccc(C(F)(F)F)cc2)c1-c1ccncc1 |
| 92 | – | Cc1ccccc1S(=O)(=O)N[C@H](C)c1[nH]nc(-c2ccc(F)cc2)c1-c1ccncc1 |
| 54 | – | CC(C)NC(=O)NCCc1[nH]nc(-c2ccc(F)cc2)c1-c1ccncc1 |
| 45 | – | C[C@H](NC(=O)c1ccc(F)cc1F)c1[nH]nc(-c2ccc(F)cc2)c1-c1ccncc1 |
| – | 2.36 | CCOc1ccc(-c2[nH]nc(C)c2-c2ccncc2)cc1 |
